One assay has as its system FLK-1 receptor. Briefly: FLK-1 Assay (cellular/catalytic ELISA, VEGF-stimulated phosphotyrosine). The assay is classed as cell-based. On the set-up: concentration or dose not given beside the values. The note with it: protocol P.110. Summed up:
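Receptor phosphotyrosine ELISA: Flk-1-expressing NIH3T3 C7#3 cells, starved overnight in 0.1% FBS medium, received compound (1:200 final dilution, 0.5% DMSO) for 2 h at 37 °C, then VEGF. Anti-FLK-1-captured receptor was probed with anti-phosphotyrosine UB40 and peroxidase/ABTS read-out, relative to cells without compound.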
Background: An ELISA detects its analyte on a solid surface through an enzyme-linked reagent.

In the next assay the test system is PDGF-R. In words: PDGF-R Assay (cellular ELISA, U1242 cells). It counts as cell-based. On the set-up: concentration or dose not given beside the values. Conditions: protocol P.119. Summed up:
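Cellular ELISA for receptor autophosphorylation: after 2 hr test-compound treatment of serum-free U1242 cells at 37°C, ligand is added for 5–10 min, cells are lysed (HNTG) and receptor captured by specific antibody. Anti-phosphotyrosine plus secondary antibody with ABTS colour read at 410/630 nm, compared with compound-free control cells.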

`CCOc1ccc(C=C2C(=O)Nc3c(Br)cc(Br)c(C)c32)cc1` [10737/H02]: in the assay on FLK-1 receptor, the “Flk Kinase % Inhibition (P.110)” value turned out to be 3.1%. Moreover, in the assay with PDGF-R, the “PDGF Kinase % Inhibition (P.119)” value is recorded as −18.1%.

With `Cc1c(Br)ccc2c1C(=Cc1ccc(Oc3ccccc3)cc1)C(=O)N2` [10737/C09], in the assay on FLK-1 receptor, the “Flk Kinase % Inhibition (P.110)” value amounted to 8.4%. The “PDGF Kinase % Inhibition (P.119)” value in the assay on PDGF-R is −1.8%.

For the compound `Cc1ccc(C=C2C(=O)Nc3ccc(CCCl)cc32)c(C)c1` [10737/G03], in the assay on FLK-1 receptor, the “Flk Kinase % Inhibition (P.110)” value was determined as 13.6%. The “PDGF Kinase % Inhibition (P.119)” value with PDGF-R worked out at 21.7%.

For the compound `Cc1ccc(C)c(C=C2C(=O)Nc3c(Br)cc(Br)cc32)c1` [10737/A07], the “Flk Kinase % Inhibition (P.110)” value in the assay on FLK-1 receptor is reported as 3.4%. For the same compound, the “PDGF Kinase % Inhibition (P.119)” value in the assay on PDGF-R amounted to 7.0%.

On to `Cc1ccc(C=C2C(=O)Nc3c(Br)cc(Br)c(C)c32)c(C)c1` [10737/H03], for which, in the assay with FLK-1 receptor, the “Flk Kinase % Inhibition (P.110)” value was determined as 3.2%. In addition, the “PDGF Kinase % Inhibition (P.119)” value in the assay with PDGF-R was −21.3%.

In the case of `COc1ccc(C=C2C(=O)Nc3ccc(I)cc32)cc1F` [10737/B06], the “Flk Kinase % Inhibition (P.110)” value in the assay with FLK-1 receptor is on record as 3.6%. Moreover, the “PDGF Kinase % Inhibition (P.119)” value in the assay on PDGF-R turned out to be 20.1%.

Turning to `O=C1Nc2ccc(I)cc2C1=Cc1cc(F)ccc1F` [10737/B04], in the assay with FLK-1 receptor, the “Flk Kinase % Inhibition (P.110)” value is −8.2%. Also, the “PDGF Kinase % Inhibition (P.119)” value in the assay with PDGF-R stood at 12.5%.

With `Cc1ccc(C)c(C=C2C(=O)Nc3ccc(I)cc32)c1` [10737/B07], the “Flk Kinase % Inhibition (P.110)” value in the assay on FLK-1 receptor is on record as 10.5%. Further, the “PDGF Kinase % Inhibition (P.119)” value with PDGF-R was found to be 18.9%.

Take `COc1cccc(C=C2C(=O)Nc3c(Br)cc(Br)c(C)c32)c1` [10736/H10]: the “Flk Kinase % Inhibition (P.110)” value in the assay with FLK-1 receptor turned out to be 2.1%. The “PDGF Kinase % Inhibition (P.119)” value with PDGF-R is listed as −21.0%.

For the compound `O=C1Nc2c(Br)cc(Br)cc2C1=Cc1cccc(Oc2cccc(C(F)(F)F)c2)c1` [10737/A11], the “Flk Kinase % Inhibition (P.110)” value in the assay on FLK-1 receptor worked out at 6.2%. Besides, in the assay with PDGF-R, the “PDGF Kinase % Inhibition (P.119)” value turned out to be 28.1%.

In the case of `COc1ccc(C=C2C(=O)Nc3ccc(S(=O)(=O)Nc4ccc(C(F)(F)F)cc4)cc32)cc1F` [10737/E06], the “Flk Kinase % Inhibition (P.110)” value in the assay with FLK-1 receptor is on record as 11.1%. Also, in the assay on PDGF-R, the “PDGF Kinase % Inhibition (P.119)” value is reported as 26.5%.

`Cc1c(Br)cc(Br)c2c1C(=Cc1cccc(F)c1F)C(=O)N2` [10737/H05]: in the assay with FLK-1 receptor, the “Flk Kinase % Inhibition (P.110)” value was 9.9%. For the same compound, in the assay on PDGF-R, the “PDGF Kinase % Inhibition (P.119)” value is recorded as −6.2%.

Consider `CNS(=O)(=O)c1ccc2c(c1)C(=Cc1ccc(C)cc1C)C(=O)N2` [10737/D03], for which the “Flk Kinase % Inhibition (P.110)” value in the assay on FLK-1 receptor was 12.1%. In the assay with PDGF-R, the “PDGF Kinase % Inhibition (P.119)” value is listed as −5.8%.

For the compound `Cc1ccc(C)c(C=C2C(=O)Nc3ccc(Br)c(C)c32)c1` [10737/C07], the “Flk Kinase % Inhibition (P.110)” value with FLK-1 receptor is 1.6%. In addition, in the assay with PDGF-R, the “PDGF Kinase % Inhibition (P.119)” value was 8.6%.

With `COc1ccc(C=C2C(=O)Nc3c(Br)cc(Br)cc32)cc1F` [10737/A06], the “Flk Kinase % Inhibition (P.110)” value in the assay on FLK-1 receptor is given as −20.3%. Further, the “PDGF Kinase % Inhibition (P.119)” value in the assay with PDGF-R is 15.7%.

Take `O=C1Nc2ccc(S(=O)(=O)N3CCOCC3)cc2C1=Cc1ccc(Oc2ccccc2)cc1` [10737/F09]: in the assay on FLK-1 receptor, the “Flk Kinase % Inhibition (P.110)” value was found to be 15.4%. Moreover, the “PDGF Kinase % Inhibition (P.119)” value in the assay with PDGF-R amounted to 9.8%.

`COc1ccc(C=C2C(=O)Nc3ccc(Br)c(C)c32)cc1F` [10737/C06]: the “Flk Kinase % Inhibition (P.110)” value with FLK-1 receptor was 8.7%. Further, the “PDGF Kinase % Inhibition (P.119)” value with PDGF-R is recorded as 7.8%.

As to `Cc1ccc(C=C2C(=O)Nc3ccc(S(=O)(=O)Nc4ccc(C(F)(F)F)cc4)cc32)c(C)c1` [10737/E03], in the assay on FLK-1 receptor, the “Flk Kinase % Inhibition (P.110)” value came out at 17.9%. For the same compound, the “PDGF Kinase % Inhibition (P.119)” value in the assay on PDGF-R was 39.2%.

As for `CNS(=O)(=O)c1ccc2c(c1)C(=Cc1cc(C)ccc1C)C(=O)N2` [10737/D07], in the assay with FLK-1 receptor, the “Flk Kinase % Inhibition (P.110)” value is reported as 12.9%. Moreover, the “PDGF Kinase % Inhibition (P.119)” value with PDGF-R was −5.0%.

Regarding `CNS(=O)(=O)c1ccc2c(c1)C(=Cc1ccc(Oc3ccccc3)cc1)C(=O)N2` [10737/D09], the “Flk Kinase % Inhibition (P.110)” value in the assay with FLK-1 receptor came to 13.9%. For the same compound, in the assay on PDGF-R, the “PDGF Kinase % Inhibition (P.119)” value was determined as 1.0%.

For `O=C1Nc2ccc(S(=O)(=O)Nc3ccc(C(F)(F)F)cc3)cc2C1=Cc1ccc(Oc2ccccc2)cc1` [10737/E09], in the assay with FLK-1 receptor, the “Flk Kinase % Inhibition (P.110)” value amounted to 11.9%. In the assay with PDGF-R, the “PDGF Kinase % Inhibition (P.119)” value is on record as 25.7%.

Turning to `CNS(=O)(=O)c1ccc2c(c1)C(=Cc1cccc(Oc3cccc(C(F)(F)F)c3)c1)C(=O)N2` [10737/D11], the “Flk Kinase % Inhibition (P.110)” value in the assay on FLK-1 receptor is 17.2%. Moreover, the “PDGF Kinase % Inhibition (P.119)” value with PDGF-R came out at 5.4%.

On to `Cc1c(Br)cc(Br)c2c1C(=Cc1cccc(F)c1)C(=O)N2` [10736/H07], for which, in the assay on FLK-1 receptor, the “Flk Kinase % Inhibition (P.110)” value is 17.8%. In the assay on PDGF-R, the “PDGF Kinase % Inhibition (P.119)” value is reported as −21.9%.

In the case of `O=C1Nc2ccc(CCCl)cc2C1=Cc1cccc(Oc2cccc(C(F)(F)F)c2)c1` [10737/G11], in the assay on FLK-1 receptor, the “Flk Kinase % Inhibition (P.110)” value is on record as 11.7%. The “PDGF Kinase % Inhibition (P.119)” value with PDGF-R worked out at 5.0%.

For the compound `CCOc1ccc(C=C2C(=O)Nc3ccc(S(=O)(=O)Nc4ccc(C(F)(F)F)cc4)cc32)cc1` [10737/E02], the “Flk Kinase % Inhibition (P.110)” value in the assay with FLK-1 receptor came out at 14.3%. In addition, in the assay with PDGF-R, the “PDGF Kinase % Inhibition (P.119)” value amounted to 12.9%.

As for `Cc1c(Br)ccc2c1C(=Cc1cc(F)ccc1F)C(=O)N2` [10737/C04], the “Flk Kinase % Inhibition (P.110)” value with FLK-1 receptor is listed as −20.1%. In addition, the “PDGF Kinase % Inhibition (P.119)” value in the assay on PDGF-R worked out at 25.7%.

As to `O=C1Nc2c(Br)cc(Br)cc2C1=Cc1cc(F)ccc1F` [10737/A04], the “Flk Kinase % Inhibition (P.110)” value in the assay with FLK-1 receptor is recorded as −0.4%. Further, the “PDGF Kinase % Inhibition (P.119)” value with PDGF-R was 23.7%.

For the compound `CCc1ccc(C=C2C(=O)Nc3c(Br)cc(Br)c(C)c32)cc1` [10736/H09], the “Flk Kinase % Inhibition (P.110)” value in the assay on FLK-1 receptor came out at 13.2%. The “PDGF Kinase % Inhibition (P.119)” value in the assay with PDGF-R is on record as −14.8%.

Turning to `O=C1Nc2ccc(I)cc2C1=Cc1ccc(Oc2ccccc2)cc1` [10737/B09], the “Flk Kinase % Inhibition (P.110)” value with FLK-1 receptor is 17.5%. For the same compound, the “PDGF Kinase % Inhibition (P.119)” value with PDGF-R was −14.1%.

Take `O=C1Nc2c(Br)cc(Br)cc2C1=Cc1ccc(Oc2ccccc2)cc1` [10737/A09]: the “Flk Kinase % Inhibition (P.110)” value in the assay with FLK-1 receptor was −10.1%. In addition, the “PDGF Kinase % Inhibition (P.119)” value with PDGF-R was found to be 18.9%.

With `Cc1ccc(C)c(C=C2C(=O)Nc3ccc(S(=O)(=O)N4CCOCC4)cc32)c1` [10737/F07], the “Flk Kinase % Inhibition (P.110)” value in the assay on FLK-1 receptor was 19.1%. Further, the “PDGF Kinase % Inhibition (P.119)” value with PDGF-R was determined as 12.9%.

For the origin of these results see patent US20020026053A1, “Novel 3-(substituted) -2- indolinones compounds and use thereof as inhibitors of protein kinase activity” (priority 1997, published 2002).
